One may read the IC50 as the point on the concentration scale where inhibition reaches its midpoint.

Data on seven molecules can be found in patent US20170260169A1, “INHIBITORS FOR STEROID RESPONSE ELEMENTS AND RNA POLYMERASE II AND RELATED METHODS” (priority 2007, published 2017).

Read-outs that look alike come from different tables or passages of the source. Where only a bound is given, the exact number is not on record here.

Data set [1] in a line: Liver microsomal stability, human. The settings on record: 1 μM, Human, 1 hr at 37° C., 1 mg/ml microsomes. A general note: Microsomes from liver hold many membrane-bound enzymes, among them those of drug oxidation.
Description: Briefly, each polyamide was incubated with 1 mg/ml human or mouse microsomes at 37° C. The reaction was incubated in 100 mM KH2PO4, 2 mM NADPH, 3 mM MgCl2 at pH 7.4. Samples were also incubated in the absence of NADPH to detect NADPH-free degradation. After 60 min the samples were mixed with an equal volume of ice cold methanol stop solution. The mixture was allowed to sit on ice for at least 10 min and mixed with an equal volume of water. The samples were then centrifuged to remove the precipitates and the samples were analyzed by LC/MS/MS. Data represents % remaining by comparing with time zero concentration. The experiments were performed in duplicate.
Data set [2] is described as follows: Multiple-dose subcutaneous injections, male C57BL/6J mice. The data set is classed as in vivo. The settings on record: 1 mg/kg SC every 3 days. Here is the method:
In addition to single dose injections, the effects of repeated dosing of polyamides 77-80 in mice were examined. In this experiment, 8 week-old male C57BL/6J mice (n=3 per dosing group) were treated with 1 mg/kg of polyamides 77-80 by subcutaneous injection every 3 days, for a cycle of three injections and then sacrificed two days after the final injection (FIG. 31A). As in the single dosing experiments, two mice per group were subjected to histopathology analysis and all blood samples were sent for analysis. […] These mice were promptly euthanized.
Serum from treated animals were collected by retroorbital bleeding. […] All samples were sent for analysis at IDEXX-RADIL.

Data set [3] in a line: Liver microsomal stability, mouse. The settings on record: 1 μM, Mouse, 1 hr at 37° C., 1 mg/ml microsomes.
Data set [4] can be described thus: Escalating single dose subcutaneous injections, male C57BL/6J mice (weight, histopathology, serum). The settings on record: for weight loss after single SC dose: 1, 3, 10 mg/kg, 9 days.
Description: Representative mice (n=2 per dosing group unless otherwise noted) were subjected to histopathology analysis by a veterinary pathologist. Blood from all mice was sampled and sent for analysis of serum markers of target organs. […] These mice were euthanized when significant duress was apparent.
All animal experiments were conducted under an approved protocol at the California Institute of Technology. Animals were allowed to adjust for 3 days after arrival before treatment. […] Animals were monitored daily for weight loss over 9 days and sacrificed. […] Weight was recorded on days of injection and at the experiment endpoint.
Sacrificed animals from weight loss experiments were fixed in 10% formalin and sent for histopathology analysis by IDEXX-RADIL. Histopathologic analysis was performed on the cecum, duodenum, heart, ileum, kidney, liver, lung, pancreas, spleen, and stomach. Tissue analysis was performed as a blind study to the identity of the animals.
Serum from treated animals were collected by retroorbital bleeding. Blood samples were centrifuged at 6,000 rpm for 5 min to collect the serum. Serum ALT, AST, total bilirubin, BUN, and creatinine levels were sent for analysis by IDEXX-RADIL. Serum analysis was performed as a blind study to the identity of the animals.
For another data set, the system named is LNCaP cells. Kind of data set: Confocal microscopy of fluorescein polyamide uptake in LNCaP cells. Type of data set: cell-based. The settings on record: for nuclear localization in LNCaP cells: 2 μM, 24 hr. The procedure:
Cells were plated in 35 mm optical dishes (MatTek) and dosed with polyamide 86 at 1 μM for 24 hours with or without 1 μM MG132. Cells were then washed with PBS and imaged on a confocal microscope (Exciter, Zeiss) using a 63× oil immersion lens. Confocal imaging was performed following established protocols (33).
To determine the biological activity of 78 in LNCaP cells we first looked for evidence nuclear localization using fluorescein analog 90. The fluorescein analog of 77, compound 88, was used as benchmark.

Data set [5] can be described thus: Serum circulation after subcutaneous injection in C57BL/6 mice. Type of data set: in vivo. The following applies: 10 mg/kg, male C57BL/6J. The procedure: To investigate if polyamide 77 could be detected in peripheral blood after SC injections, 120 nmol of 77 (in 5% DMSO/PBS) was injected into the right flank of four C57BL/6 mice. Blood was collected from anesthetized mice via retroorbital collection at 5 minutes, 4 h, and 12 h after injection, then processed by methods previously described and analyzed by HPLC (35). For measurement of serum PSA (KLK3) and uric acid, blood was collected from anesthetized mice via retroorbital collection at experimental endpoint and serum was separated from blood by centrifugation. Serum PSA (KLK3) was measured by ELISA (R&D systems) according to manufacturer's instructions. Uric acid was measured as described (36).
We synthesized four structurally related polyamides (FIG. 28) that have an identical Py-Im sequence ImPyPyPy-γ-ImPyPyPy-NHMe-IPA.

A short description of data set [6]: Liver uptake of fluorescein-polyamide conjugates in mice. Type of data set: in vivo. The settings on record: 50 nmol (~3 mg/kg), 24 hours. The procedure: Male C57BL/6J mice (n=2 per group) were injected with 50 nmol (˜3 mg/kg) of 88-91 and then sacrificed 24 hours later. Tissue was excised and processed as previously described (20). The tissues were excised and fixed in 10% Neutral Buffered Formalin for 48 hours. They were subsequently cryoprotected in 15% and 30% aqueous sucrose solution (w/v) for 24 hours each, embedded in a medium for frozen sections (Sakura) and frozen on dry ice. Fluorescence intensity in liver tissue was assessed by laser confocal microscopy in 10 μm thick sections on slides mounted with a ProLong antifade reagent (Invitrogen).

Data set [7] concerns PSA mRNA expression in LNCaP cells. In words: DHT-induced PSA mRNA in LNCaP cells, quantitative real-time RT-PCR. The data set is classed as cell-based. The following applies: for inhibition of DHT-induced PSA expression: up to, at 10 μM, 1 nM DHT. Background: Real-time PCR tracks product formation cycle by cycle.
Description: LNCaP cells (ATCC) were plated in 24-well plates at a density of 40-50×10^3 cells per well (80-100×10^3 cells per ml) in RPMI medium 1640 (ATCC) supplemented with 10% FBS (Irvine Scientific, Santa Ana, Calif.). After 72 h, the medium was replaced with RPMI medium 1640 containing 10% charcoal stripped FBS with or without polyamides at the designated concentrations. Cells were grown for an additional 48 h and then treated with 1 nM DHT for 16 h. When appropriate, bicalutamide was added 2 h before DHT stimulation. Isolation of RNA and cDNA synthesis was performed as described (21). Quantitative real-time RT-PCR was performed with SYBR Green PCR Master Mix (Applied Biosystems, Foster City, Calif.) on an ABI 7300 instrument. PSA mRNA was measured relative to β-glucuronidase as an endogenous control.
In data set [8] the test system is PSA mRNA expression in LNAR cells. In words: PSA mRNA expression in LNAR cells (hormone refractory, over-express AR). The data set is classed as cell-based.
Excerpt: The cell line LNAR was used, which has been engineered to over-express AR (14). LNAR cells over-express AR and form hormone refractory tumors when xenografted in mice (14).
Data set [9] deals with FKBP5 mRNA expression in LNCaP cells. In words: DHT-induced FKBP5 mRNA in LNCaP cells. The data set is classed as cell-based.
For data set [10], the system named is transcripts in DHT-stimulated LNCaP cells. In words: Gene expression with Affymetrix Human Genome U133 Plus 2.0 arrays, DHT-stimulated LNCaP cells. The data set is classed as cell-based. The procedure:
LNCaP cells were plated in 12-well plates at a density of 80-100×10^3 cells per well. Media, polyamide treatments, and time courses were the same as described above. Bicalutamide was added 2 h before DHT stimulation. RNA was isolated as described in ref. 21. From this point, experiments were carried out at the Millard and Muriel Jacobs Gene Expression Facility at the California Institute of Technology. Labeled mRNA was hybridized to Affymetrix high-density Human Genome U133 Plus 2.0 arrays according to established protocols. Gene expression was analyzed by using Resolver (Rosetta Biosoftware, Seattle, Wash.). Data were uploaded to the Gene Expression Omnibus repository (accession no. GSE7708).
Global effects of polyamides 1 and 2 and bicalutamide on gene expression in DHT-stimulated LNCaP cells were monitored with Affymetrix (Santa Clara, Calif.) high-density Human Genome U133 Plus 2.0 arrays, which interrogate >50,000 transcripts.

[11] abbreviates: 10 μM, + DHT, relative to DHT-induced controls, p ≦ 0.01.
Where [12] appears, read: relative to DHT-induced controls, + DHT.

`CN(CCCNC(=O)c1cccc(C(=O)O)c1)CCCNC(=O)c1cc(NC(=O)c2cc(NC(=O)c3cc(NC(=O)c4nc(NC(=O)C[C@@H](N)CNC(=O)c5cc(NC(=O)c6cc(NC(=O)c7cc(NC(=O)c8nccn8C)cn7C)cn6C)cn5C)cn4C)cn3C)cn2C)cn1C` [Polyamide 79, ImPyPyPy-3-(R)H^2Nγ-ImPyPyPy-NHMe-IPA]: in data set [1], the “Mean remaining parent NADPH-free” value was 100% and the “Mean remaining parent with NADPH” value is recorded as 91.9%. In [2], the “liver and kidney histopathology” value was “mild multifocal hepatocellular necrosis and apoptosis in the liver and mild variable tubular attenuation, karyomegaly and epithelial necrosis and apoptosis in the kidney”; the “liver and kidney serum markers” value is “elevated AST and ALT”. Moreover, the “weight and physical morbidity” value in [2] (three injections) is listed as “no loss in weight or physical morbidities”. Also, in [3], the “Mean remaining parent NADPH-free” value is 100% and the “Mean remaining parent with NADPH” value amounted to 92.4%. Also, the “weight loss after single SC dose” value in [4] is “significant weight loss only at 10 mg/kg”. In [4] (single SC 3 mg/kg), the kidney histopathology entry is on record as “Moderate atypical tubular regeneration”; the liver histopathology result is “Mild hepatocellular necrosis and apoptosis”. Further, in [4] (single SC 10 mg/kg), the liver histopathology result was “diffuse hepatocellular necrosis and apoptosis”; the spleen histopathology result is recorded as “Mild lymphoid apoptosis in the white pulp of the spleen”. For the same molecule, in [4] (single SC dose), the “serum kidney markers creatinine and BUN” value was “elevated BUN at 10 mg/kg”; the “serum liver markers AST, ALT, total bilirubin” value is “severe elevation of AST, ALT, and total bilirubin at 10 mg/kg and to a lesser extent at 3 mg/kg”.

For the molecule `CN(CCCNC(=O)c1cc(NC(=O)c2cc(NC(=O)c3cc(NC(=O)c4nc(NC(=O)C[C@H](CNC(=O)c5cc(NC(=O)c6cc(NC(=O)c7cc(NC(=O)c8nccn8C)cn7C)cn6C)cn5C)NC(=O)OCc5ccccc5)cn4C)cn3C)cn2C)cn1C)CCCNC(=S)Nc1ccc(-c2c3ccc(=O)cc-3oc3cc(O)ccc23)c(C(=O)O)c1` [Polyamide 86], the “cellular uptake with MG132” value with LNCaP cells (1 μM, 24 hours, 1 μM MG132) was “did not affect the cellular uptake”.

For `Cn1cc2cc1C(=O)NCCCC(=O)Nc1cn(C)c(n1)C(=O)Nc1cc(n(C)c1)C(=O)Nc1cc(n(C)c1)C(=O)Nc1cc(n(C)c1)C(=O)NCC[C@@H](N)C(=O)Nc1cn(C)c(n1)C(=O)Nc1cc(n(C)c1)C(=O)Nc1cc(n(C)c1)C(=O)N2` [Polyamide 87], the “bioavailability in serum after subcutaneous injection” value in data set [5] was “bioavailable after subcutaneous injection at 10 mg/kg”. In addition, in data set [4], the “weight loss after single SC dose” value is on record as “did not cause significant weight loss”. Further, the “overall toxicity / organ damage” value in data set [4] (single SC 1, 3, 10 mg/kg) was “moderate damage to both the liver and kidney at 3 and 10 mg/kg”. Moreover, the “serum liver markers AST, ALT, total bilirubin” value in data set [4] (single SC dose) was “caused levels of ALT and AST to increase in a dose dependent manner”.

Consider `CN(CCCNC(=O)c1cc(NC(=O)c2cc(NC(=O)c3cc(NC(=O)c4nc(NC(=O)[C@H](N)CCNC(=O)c5cc(NC(=O)c6cc(NC(=O)c7cc(NC(=O)c8nccn8C)cn7C)cn6C)cn5C)cn4C)cn3C)cn2C)cn1C)CCCNC(=S)Nc1ccc(-c2c3ccc(=O)cc-3oc3cc(O)ccc23)c(C(=O)O)c1` [Polyamide 88], for which the “nuclear localization in LNCaP cells” value with LNCaP cells is recorded as “robust nuclear localization”.

Take `CC(=O)N[C@H](CCNC(=O)c1cc(NC(=O)c2cc(NC(=O)c3cc(NC(=O)c4nccn4C)cn3C)cn2C)cn1C)C(=O)Nc1cn(C)c(C(=O)Nc2cc(C(=O)Nc3cc(C(=O)Nc4cc(C(=O)NCCCN(C)CCCNC(=S)Nc5ccc(-c6c7ccc(=O)cc-7oc7cc(O)ccc67)c(C(=O)O)c5)n(C)c4)n(C)c3)n(C)c2)n1` [Polyamide 90]: in data set [6], the “nuclear fluorescence in liver sections” value is reported as “less nuclear fluorescence in liver sections than the other FITC-polyamide conjugates”. Further, the “nuclear localization in LNCaP cells” value in the data set with LNCaP cells is on record as “robust nuclear localization”.

In the case of `CC(=O)N[C@@H](CNC(=O)c1cc(NC(=O)c2cc(NC(=O)c3cc(NC(=O)c4nccn4C)cn3C)cn2C)cn1C)CC(=O)Nc1cn(C)c(C(=O)Nc2cc(C(=O)Nc3cc(C(=O)Nc4cc(C(=O)NCCCN(C)CCCNC(=S)Nc5ccc(-c6c7ccc(=O)cc-7oc7cc(O)ccc67)c(C(=O)O)c5)n(C)c4)n(C)c3)n(C)c2)n1` [Polyamide 91], the “nuclear fluorescence in liver sections” value in data set [6] is listed as “the most intense nuclear fluorescence in liver sections”.

Turning to `CC(O)(CS(=O)(=O)c1ccc(F)cc1)C(=O)Nc1ccc(C#N)c(C(F)(F)F)c1` (stereo not shown) [bicalutamide, reference compound], the IC50 in data set [7] (Homo sapiens, LNCaP + DHT, read-out: IC50 for inhibition of PSA mRNA expression) was found to be 0.9 µM. Further, the “inhibition of DHT-induced PSA expression” value in [7] is listed as “approximately 70%”. In addition, in data set [7] (listed as Bicalutamide), the “inhibition of DHT-induced PSA expression” value is reported as “≈ 70%”. The IC50 in [8] (LNAR + DHT, read-out: IC50 for inhibition of PSA mRNA expression) was more than 1000 µM. Moreover, in [8] (LNAR − DHT, bicalutamide induces PSA mRNA in LNAR cells, read-out: IC50 for inhibition of PSA mRNA expression (value in parentheses)), the IC50 was found to be 3.5 µM. For the same molecule, the “inhibition of DHT-induced expression of FKBP5” value in data set [9] was approximately 95%. In addition, in [10] (setting [11]), the “Number of transcripts down-regulated (fold change ≦ −2.0)” value was 602, the “Number of transcripts down-regulated (fold change ≦ −4.0)” value is on record as 133, the “Number of transcripts up-regulated (fold change ≧ 2.0)” value is 611 and the “Number of transcripts up-regulated (fold change ≧ 4.0)” value came to 96. The “number of transcripts affected by at least 2-fold” value in data set [10] (10 μM, P≦0.01, vs DHT-induced controls) is 1,213. For the same molecule, in data set [10] (P≦0.01), the “number of the 88 DHT-repressed transcripts derepressed at least 2-fold” value amounted to 87 and the “number of the 199 DHT-induced transcripts inhibited at least 2-fold” value was determined as 186. In data set [10] (setting [12]), the “Fold-change of FKBP5” value is recorded as −36.4, the “Fold-change of KLK2” value is recorded as −14.7, the “Fold-change of KLK3 (PSA)” value is on record as −3.2 and the “Fold-change of TMPRSS2” value is recorded as −4.1.
